The record followed here is article PMC8288134, “Synthesis, potential antitumor activity, cell cycle analysis, and multitarget mechanisms of novel hydrazones incorporating a 4-methylsulfonylbenzene scaffold: a molecular docking study” (Journal of Enzyme Inhibition and Medicinal Chemistry, 2021).

Where two headings read alike, the source gives them in different places.

Assay [1] has as its system MCF7. In words: NCI antitumor screen (SRB). In kind it is cell-based. The following applies: Homo sapiens; for inhibition at 10 µM: one dose 10 µM, read-out: Growth inhibition percentage (GI%).
The subject of assay [2] is SNB-19. In words: NCI antitumor screen (SRB). The following applies: Homo sapiens; for inhibition at 10 µM: one dose 10 µM, read-out: Growth inhibition percentage (GI%). In kind it is cell-based.
Assay [3] has as its system RXF 393. In words: NCI antitumor screen (SRB). In kind it is cell-based. Conditions: Homo sapiens; for inhibition at 10 µM: one dose 10 µM, read-out: Growth inhibition percentage (GI%).
For assay [4], the system named is A549/ATCC. In words: NCI antitumor screen (SRB). The format is cell-based. Conditions: Homo sapiens; for inhibition at 10 µM: one dose 10 µM, read-out: Growth inhibition percentage (GI%).
The target of assay [5] is T1, COX-2 (Ovis aries, UniProt P79208).
T1 construct: purchased Cayman Chemical 560101
T1 sequence (P79208 17-603): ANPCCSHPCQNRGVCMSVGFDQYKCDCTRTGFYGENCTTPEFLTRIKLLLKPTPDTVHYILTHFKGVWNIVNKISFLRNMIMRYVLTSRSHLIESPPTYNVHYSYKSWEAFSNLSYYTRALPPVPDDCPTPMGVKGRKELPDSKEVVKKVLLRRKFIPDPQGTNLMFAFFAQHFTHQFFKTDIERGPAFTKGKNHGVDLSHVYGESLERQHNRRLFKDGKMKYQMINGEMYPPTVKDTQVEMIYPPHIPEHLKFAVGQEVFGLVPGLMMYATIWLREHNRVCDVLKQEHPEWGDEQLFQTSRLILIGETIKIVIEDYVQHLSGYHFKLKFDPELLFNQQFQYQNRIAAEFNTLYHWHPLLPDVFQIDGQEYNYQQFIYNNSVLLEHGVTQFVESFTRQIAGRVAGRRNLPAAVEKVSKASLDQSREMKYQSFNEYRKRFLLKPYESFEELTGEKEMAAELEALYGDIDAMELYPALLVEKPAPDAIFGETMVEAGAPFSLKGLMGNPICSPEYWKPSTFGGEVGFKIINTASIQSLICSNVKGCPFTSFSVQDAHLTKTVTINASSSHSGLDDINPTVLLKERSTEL
The experiment in a line: biochemical. The following applies: mean of three determinations; read-out: IC50 COX-2 Inhibition. How it is done:
had been previously attached to the well. The plate was washed to remove any unbound reagents, and then Ellman’s reagent, containing the substrate of acetylcholine esterase, was added to the well. This enzymatic reaction produced a distinct yellow color that was absorbed in 410 nm. The intensity of the color, determined spectrophotometrically, was proportional to the amount of PG tracer bound to the well, which was inversely proportional to PGs present in the well during the incubation: Absorbance ∝ [Bound PG Tracer] a1/PGs. Percent inhibition was calculated by comparing the treated compound to various control incubations. The test compound […]
inhibition response curve (duplicate determinations). […]

In assay [6] the test system is HCT-116. The experiment in a line: NCI antitumor screen (SRB). The format is cell-based. Conditions: Homo sapiens; for inhibition at 10 µM: read-out: Growth inhibition percentage (GI%).
Assay [7] deals with NCI-H226. The experiment in a line: NCI antitumor screen (SRB). In kind it is cell-based. The following applies: Homo sapiens; for inhibition at 10 µM: one dose 10 µM, read-out: Growth inhibition percentage (GI%).
Assay [8] concerns M14. In words: NCI antitumor screen (SRB). The following applies: Homo sapiens; for inhibition at 10 µM: one dose 10 µM, read-out: Growth inhibition percentage (GI%). In kind it is cell-based.
Assay [9] deals with PC-3. The experiment in a line: NCI antitumor screen (SRB). In kind it is cell-based. Conditions: Homo sapiens; for inhibition at 10 µM: one dose 10 µM, read-out: Growth inhibition percentage (GI%).
The test system of assay [10] is TK-10. In words: NCI antitumor screen (SRB). In kind it is cell-based. Conditions: Homo sapiens, one dose 10 µM, read-out: Growth inhibition percentage (GI%).
Assay [11] deals with SK-MEL-2. In words: NCI antitumor screen (SRB). In kind it is cell-based. The following applies: Homo sapiens.
In assay [12] the test system is SR. In words: NCI antitumor screen (SRB). In kind it is cell-based. Conditions: Homo sapiens; for inhibition at 10 µM: one dose 10 µM, read-out: Growth inhibition percentage (GI%).
Assay [13] has as its system CAKI-1. In words: NCI antitumor screen (SRB). The format is cell-based. Conditions: Homo sapiens; for inhibition at 10 µM: one dose 10 µM, read-out: Growth inhibition percentage (GI%).
The subject of assay [14] is HT29. The experiment in a line: NCI antitumor screen (SRB). In kind it is cell-based. Conditions: Homo sapiens; for inhibition at 10 µM: HT-29, one dose 10 µM, read-out: Growth inhibition percentage (GI%).
In assay [15] the test system is MDA-MB-435. In words: NCI antitumor screen (SRB). The format is cell-based. Conditions: Homo sapiens; for inhibition at 10 µM: one dose 10 µM, read-out: Growth inhibition percentage (GI%).
Setting [16] is: SK-MEL-2, read-out: Growth inhibition percentage (GI%).
[17] abbreviates: five concentrations 0.01-100 µM.

In the case of `CS(=O)(=O)c1ccc(C(=O)NN=Cc2cccc3ccccc23)cc1` [Compound 6, 4-(Methylsulfonyl)-N'-(naphthalen-1-ylmethylene)benzohydrazide], the inhibition at 10 µM in assay [1] was 55.1%; in [2], 20.2%; in [3], < 10%; in [4], 58.7%; in [6], 38.2%; in assay [7], 16.3%. Besides, the inhibition at 10 µM in [8] amounted to 33.2%; in [9], 21.2%; in [10], 14.9%; in [11] (setting [16]), 52.3%; in [12], 67.5%; in assay [13], 32.8%. The values for the inhibition at 10 µM in assay [14] and in assay [15] were 50.5% and 82.9%, respectively. The IC50 in assay [5] is 36300 ± 2550 nM.

For the molecule `Cc1ccc(C=NNC(=O)c2ccc(S(C)(=O)=O)cc2)cc1` [Compound 9, N'-(4-Methylbenzylidene)-4-(methylsulfonyl)benzohydrazide], the inhibition at 10 µM in assay [1] was 21.4%; in [2], < 10%; in [3], < 10%; in [4], 12.7%; in assay [6], 13.9%; in assay [7], < 10%. The inhibition at 10 µM in [8] is < 10%; in assay [9], 26.9%; in [10], < 10%; in assay [11] (setting [16]) it was 19.8%; in assay [12] it was 43.8%; in assay [13], 25%. Moreover, the inhibition at 10 µM in assay [14] came to 17.7%; in [15], 47.5%. Also, the IC50 in assay [5] is 2970 ± 70 nM.

As for `CS(=O)(=O)c1ccc(C(=O)N/N=C/c2ccccc2O)cc1` [Compound 16], the inhibition at 10 µM in [1] was 77.5%; in assay [2] it was 54.6%; in assay [3], 47%; in [4] it was 61.2%; in assay [6], 70.9%; in assay [7], 44.8%. For the same molecule, the inhibition at 10 µM in [8] worked out at 67.5%; in [9], 45.7%; in assay [10] it was 54.2%; in [11] (setting [16]), 60%; in assay [12], 79.6%; in assay [13], 65.1%. Besides, the inhibition at 10 µM was 56.4% in assay [14] and 40.3% in assay [15]. Besides, the IC50 in assay [5] amounted to 82400 ± 3610 nM.

As for `CCN(CC)c1ccc(/C=N/NC(=O)c2ccc(S(C)(=O)=O)cc2)c(O)c1` [Compound 20], the GI50 in assay [1] (setting [17]) was 253 nM; in assay [2] (setting [17]) it was 428 nM; in [3] (setting [17]), 271 nM; in assay [4] (setting [17]) it was 402 nM; in assay [6] it was 121 nM; in assay [7] (setting [17]), 73 nM. In addition, the GI50 in assay [8] (setting [17]) worked out at 171 nM; in [9] (setting [17]), 319 nM; in [11] (SK-MEL-2, five concentrations 0.01-100 µM) it was 307 nM; in assay [12] (setting [17]), 63 nM; in assay [13] (setting [17]), 104 nM; in assay [14] (HT-29, five concentrations 0.01-100 µM), 297 nM. The molecule also displayed a GI50 in [15] (setting [17]) of 623 nM. Besides, the inhibition at 10 µM was 91.2% in assay [1]; 68% in assay [2]; 71.5% in [3]; 87.5% in [4]; 81.6% in [6]; 77.4% in assay [7]. The inhibition at 10 µM in assay [8] was 96.6%; in [9], 50.8%; in assay [10], 69.5%; in [11] (SK-MEL-2, one dose 10 µM, read-out: Growth inhibition percentage (GI%)), 80.5%; in assay [12], 91%; in assay [13] it was 79.6%. Besides, the inhibition at 10 µM in assay [14] stood at 78.2%; in [15] it was 62.8%. Also, the IC50 in assay [5] turned out to be 6940 ± 410 nM.
